Assay results published in PubChem BioAssay AID1996.
In brackets after ≈: the same amount, converted by molar mass.

settings: buffer; pH 7.4; 200.0 µM

Row | solubility kinetic | SMILES
1 | < 0.1 µg/mL | Cc1ccc2c(=O)[nH]c(Nc3nc(C)cc(-c4ccccc4)n3)nc2c1
2 | 0.3 µg/mL (≈ 0.849 µM) | Cc1cc2cc(C#N)c(SCC(=O)Nc3nonc3C)nc2cc1C
3 | > 42.4 µg/mL | COC(=O)[C@@H](NC(=O)NCCC1=CCCCC1)C(C)C
4 | 20.9 µg/mL (≈ 74.8 µM) | Cc1cccc(NC(=O)/C(C#N)=C/c2ccccc2O)n1
5 | 7.7 µg/mL (≈ 43 µM) | c1ccc2c(c1)cnc1ccccc12
6 | 42.6 µg/mL (≈ 138 µM) | O=C(Nc1ccccc1)c1ccccc1C(=O)N1CCCCC1
7 | > 74.8 µg/mL | O=C(COC(=O)[C@@H]1CC(O)CN1S(=O)(=O)c1ccc2c(c1)OCCO2)Nc1cc(F)ccc1F (some centres undefined)
8 | > 54.1 µg/mL | COCCN(CC(=O)Nc1cccc(C)c1C)C(=O)Cc1ccsc1
9 | > 31.7 µg/mL | CN(C)c1ncnc(N(C)C)c1[N+](=O)[O-]
10 | 4.8 µg/mL (≈ 16 µM) | Cc1noc(C)c1C(=O)OCC(=O)N1CCc2ccccc21
11 | > 50.2 µg/mL | CN1CCCC(OC(=O)c2cccc(Br)c2)C1.Cl (centres undefined)
12 | 1.5 µg/mL (≈ 5.11 µM) | CN(C(=O)c1ccc(-c2ccccc2)cc1)C1CCCCC1
13 | > 48.7 µg/mL | CCc1cccc(C)c1NC(=O)CCNC(=O)c1cccc(C)c1
14 | 57.5 µg/mL | CCOC(=O)C1CCN(CC(O)COCc2ccc(Cl)cc2)CC1.Cl (centres undefined)
15 | > 59.8 µg/mL | O=C(COC(=O)CN1C(=O)C2CCCCC2C1=O)Nc1ccc(F)c(F)c1F (centres undefined)
16 | > 35.4 µg/mL | CCOc1ccc(N2C(=O)CNC2=S)cc1
17 | 42.3 µg/mL (≈ 145 µM) | CC1Cc2ccccc2N1C(=O)Cn1cnc2ccccc21 (centres undefined)
18 | 35.2 µg/mL (≈ 123 µM) | CCc1ccc(N2CC(C(=O)N3CCCC3)CC2=O)cc1 (centres undefined)
19 | 34.8 µg/mL (≈ 112 µM) | O=Cc1c(NCCc2ccc(F)cc2)c2ccccc2[nH]c1=O
20 | 48.7 µg/mL (≈ 123 µM) | C[C@@H](C(=O)NC1CCCC1)N1C(=O)N2CCc3c([nH]c4ccccc34)[C@@]2(C)C1=O

The next lines start with the compound.

Row | SMILES | solubility kinetic
21 | Cc1ccc2nc(Cl)c(/C=C/C(=O)c3ccco3)cc2c1 | 15.4 µg/mL (≈ 51.7 µM)
22 | CCNC(=O)c1cccc(NC(=O)C2CC(=O)N(CCc3ccccc3)C2)c1 (centres undefined) | > 56.9 µg/mL
23 | Cc1cc(C(=O)COc2ccc(C#N)cc2)c(C)n1CC1CCCO1 (centres undefined) | 16.7 µg/mL (≈ 49.3 µM)
24 | COc1ccc(-c2nc3ncccc3o2)cc1NC(=O)c1ccco1 | 2.5 µg/mL (≈ 7.46 µM)
25 | CCCCCn1c(=O)c(C(=O)Nc2cccc(C)c2)c(O)c2ccccc21 | < 0.4 µg/mL
26 | Cn1cc(CCC(=O)NC2CC2)c2ccccc21 | > 36.3 µg/mL
27 | COc1ccccc1Cn1c(=O)oc2ccc(C)cc21 | 2.9 µg/mL (≈ 10.8 µM)
28 | CNC(=O)CSc1nc2ccccc2c(=O)n1C1CCCCC1 | > 49.7 µg/mL
29 | O=C(O)CC1(CC(=O)Nc2ccc3c(c2)C(=O)OC3)CCCCC1 | > 49.7 µg/mL
30 | Cc1cc(C)cc(OCCN2CCOCC2)c1 | 22.5 µg/mL (≈ 95.6 µM)
31 | CS(=O)(=O)N(CC(=O)N1CCCCCC1)c1cccc([N+](=O)[O-])c1 | > 53.3 µg/mL
32 | C#CC1(NC(=O)NC(=O)c2c(F)cccc2F)CCCCC1 | 0.6 µg/mL (≈ 1.96 µM)
33 | COc1ccccc1NC(=O)CC(=O)Nc1ccccc1OC | > 47.2 µg/mL
34 | COc1ccccc1CCC(=O)NNC(=O)c1ccccc1 | > 44.8 µg/mL
35 | CC(NS(=O)(=O)c1ccc2[nH]c(=O)c(=O)[nH]c2c1)C(=O)O (centres undefined) | 13.9 µg/mL (≈ 44.4 µM)
36 | CCOc1ccc(Nc2cc(C)c3ccccc3n2)cc1 | < 0.3 µg/mL
37 | COC(=O)c1ccc(C(=O)N=c2sccn2C)cc1 | 13.9 µg/mL (≈ 50.3 µM)
38 | CCOC(=O)c1c(C)n(C(C)C)c2ccc(OC)cc12 | 15.1 µg/mL (≈ 54.8 µM)
39 | O=C(Nc1c(Cl)ccc2nsnc12)c1ccc([N+](=O)[O-])o1 | > 48.7 µg/mL
40 | COc1cc2c(cc1OC)CN(C(=O)CCC(=O)c1ccc(F)cc1)CC2 | > 55.7 µg/mL

Row | SMILES | solubility kinetic
41 | Cc1ccccc1S(=O)(=O)N1CCN(C)CC1 | > 38.2 µg/mL
42 | CCCC(C)C(=O)Nc1ccc(S(=O)(=O)N2CCCC2)cc1 (centres undefined) | > 48.7 µg/mL
43 | O=C(NCc1ccccc1)c1ccc(Cl)cc1 | 3.8 µg/mL (≈ 15.5 µM)
44 | COc1ccc(C(=O)NCCNc2ccc([N+](=O)[O-])cc2)cc1 | 5 µg/mL (≈ 15.9 µM)
45 | CC1CCCC(NC(=O)COC(=O)c2cc(=O)[nH]c3ccccc23)C1C (centres undefined) | 4.6 µg/mL (≈ 12.9 µM)
46 | O=C(N/N=C/c1ccc2c(c1)OCO2)C1CC1 | > 34.8 µg/mL
47 | Cc1cc(C)nc(-n2ncc3c2CC(C)CC3=O)n1 (centres undefined) | > 38.4 µg/mL
48 | CC(=O)N1CCN(C(=O)c2ccc3c(c2)OCCO3)CC1 | > 43.5 µg/mL
49 | N#C/C(=C\c1ccncc1)c1nc2ccccc2[nH]1 | 24.8 µg/mL (≈ 101 µM)
50 | CC(Oc1ccccc1)C(=O)Nc1cccc([N+](=O)[O-])c1 (centres undefined) | > 42.9 µg/mL
51 | Cc1cccc(NC(=O)Nc2c(C)[nH]c(=O)[nH]c2=O)c1C | 5.2 µg/mL (≈ 18 µM)
52 | CC(C)C(NC(=O)c1ccc(Cl)cc1)C(=O)NCC1CCCO1 (centres undefined) | > 50.8 µg/mL
53 | CCCN(Cc1cc2cc(OC)ccc2[nH]c1=O)C(=O)c1ccco1 | 45.2 µg/mL (≈ 133 µM)
54 | CN1CCN(Cc2cc(=O)n3ccsc3n2)CC1 | 35.7 µg/mL (≈ 135 µM)
55 | CNc1c(NC(=O)C2CCC(C)CC2)c(=O)oc2ccccc12 (centres undefined) | 1.8 µg/mL (≈ 5.73 µM)
56 | Cc1cccc(-c2nc(-c3ccncc3)no2)c1 | 3.4 µg/mL (≈ 14.3 µM)
57 | CN(c1ccccc1)S(=O)(=O)c1cccc(C(=O)OCC(=O)NCc2ccccc2)c1 | 11.1 µg/mL (≈ 25.3 µM)
58 | COc1ccc(Cl)cc1S(=O)(=O)n1ccnc1 | > 40.9 µg/mL
59 | Cc1nc(N2CCOCC2)[nH]c(=O)c1C(O)C(Cl)(Cl)Cl (centres undefined) | 47.1 µg/mL (≈ 137 µM)
